These are literature values, as cited in publication PMC3262105 (Journal of the American Chemical Society, 2012).

The test system of series [1] is SEVI- and semen-mediated enhancement of HIV infection in T cells.
In series [2] the test system is cervical cells. To be noted: concentration 10 times the IC50 for efficacy.
Series [3] relates to cervical cells. To be noted: concentration 10 times the IC50 for efficacy. The source holds these as a separate data set.

Consider `Cc1ccc2nc(-c3ccc(NCCOCCOCCOCCOCCOCCO)cc3)sc2c1` [BTA-EG6], for which the “concentration required to nearly completely neutralize the effects of SEVI on HIV-1 infection” value in series [1] is 44 µM. The IC50 in series [1] (read-out: IC50 for reducing SEVI-enhanced infection of HIV, T cells) is 13 µM. In addition, in series [2], the “toxicity to cervical cells” value was “not toxic”. In series [3], the pro-inflammatory activity entry was “did not exhibit any pro-inflammatory activity”.

For orientation: IC50 means the concentration that inhibits the measured activity by half.
